The assay addresses T1, Neuropeptide Y receptor type 1 (Rattus norvegicus, UniProt P21555).
T1 sequence (P21555 whole entry): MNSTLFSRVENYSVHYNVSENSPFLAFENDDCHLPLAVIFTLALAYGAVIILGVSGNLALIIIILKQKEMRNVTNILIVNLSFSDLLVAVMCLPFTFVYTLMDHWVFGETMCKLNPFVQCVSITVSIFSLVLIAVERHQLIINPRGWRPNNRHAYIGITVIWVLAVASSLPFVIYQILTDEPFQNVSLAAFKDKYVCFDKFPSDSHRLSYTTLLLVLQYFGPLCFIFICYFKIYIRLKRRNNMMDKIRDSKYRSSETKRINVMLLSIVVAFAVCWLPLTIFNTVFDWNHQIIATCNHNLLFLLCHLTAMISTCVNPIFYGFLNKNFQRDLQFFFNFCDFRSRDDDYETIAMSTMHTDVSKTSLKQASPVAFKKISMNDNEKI

Positions of bridges follow the written chain, without caps; N, C: chain ends. Non-standard residues stand in square brackets, D forms with d. Residues, ends and D or L forms follow the SMILES beside them. Chains are numbered I, II in the order given. Dap = NC[C@H](N)C(=O)O

In general, Ki refers to the dissociation constant of the complex between target and ligand, obtained from inhibition or displacement. Low values mean higher affinity, high ones lower affinity. `CC[C@H](C)[C@H](N)C(=O)N[C@H]1CCC(=O)NC[C@@H](C(=O)N[C@@H](Cc2ccc(O)cc2)C(=O)N[C@@H](CCCN=C(N)N)C(=O)N[C@@H](CC(C)C)C(=O)N[C@@H](CCCN=C(N)N)C(=O)N[C@@H](Cc2ccc(O)cc2)C(N)=O)NC(=O)[C@@H]2CCCN2C(=O)[C@@H](NC(=O)[C@@H](N)[C@@H](C)CC)CCC(=O)NC[C@@H](C(=O)N[C@@H](Cc2ccc(O)cc2)C(=O)N[C@@H](CCCN=C(N)N)C(=O)N[C@@H](CC(C)C)C(=O)N[C@@H](CCCN=C(N)N)C(=O)N[C@@H](Cc2ccc(O)cc2)C(N)=O)NC(=O)[C@@H]2CCCN2C1=O` [1229U91] (I: H-IEP[Dap]YRLRY-NH2 / II: H-IEP[Dap]YRLRY-NH2; amide I:2-II:4, I:4-II:2) registered a Ki of 12.6 nM.

Source of the values: BindingDB's records for PubMed 8531090 (Roche Bioscience, 1995).
